Assay results: patent US6737383B1, “Herbicidal oxadiazolidines” (priority 1999, dated 2004)

How the values were obtained:
morningglory = experiment: Test B pre/postemergence morningglory; assay type: in vivo, Ipomoea hederacea
How it was run: (§1)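 Test chemicals in a non-phytotoxic solvent mixture with surfactant were sprayed preemergence onto planted seeds and postemergence onto plants 2 to 18 cm tall (1- to 4-leaf stage). After twelve to sixteen days in a greenhouse, injury was visually rated against untreated controls from 0 (no effect) to 10 (complete control).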

cocklebur = experiment: Test B pre/postemergence cocklebur; assay type: in vivo, Xanthium strumarium
How it was run: as §1

sugar beet = experiment: Test B pre/postemergence sugar beet; assay type: in vivo, Beta vulgaris
How it was run: as §1

bedstraw = experiment: Test B pre/postemergence bedstraw; assay type: in vivo, Galium aparine; settings: for Plant response rating, Bedstraw: Rate 62 g/ha, scale of 0 to 10 where 0 is no effect and 10 is complete control
How it was run: as §1

wild oat = experiment: Test B pre/postemergence wild oat; assay type: in vivo, Avena fatua
How it was run: as §1

giant foxtail = experiment: Test B pre/postemergence giant foxtail; assay type: in vivo, Setaria faberii
How it was run: as §1

crabgrass = experiment: Test B pre/postemergence crabgrass; assay type: in vivo, Digitaria sanguinalis
How it was run: as §1

wheat = experiment: Test B pre/postemergence wheat; assay type: in vivo, Triticum aestivum
How it was run: as §1

purple nutsedge = experiment: Test B pre/postemergence purple nutsedge; assay type: in vivo, Cyperus rotundus
How it was run: as §1

blackgrass = experiment: Test B pre/postemergence blackgrass; assay type: in vivo, Alopecurus myosuroides
How it was run: as §1

rape = experiment: Test B pre/postemergence rape; assay type: in vivo, Brassica napus
How it was run: as §1

surinam grass = experiment: Test B pre/postemergence surinam grass; assay type: in vivo, Brachiaria decumbens
How it was run: as §1

pigweed = experiment: Test B pre/postemergence pigweed; assay type: in vivo, Amaranthus retroflexus
How it was run: as §1

velvetleaf = experiment: Test B pre/postemergence velvetleaf; assay type: in vivo, Abutilon theophrasti
How it was run: as §1

corn = experiment: Test B pre/postemergence corn; assay type: in vivo, Zea mays
How it was run: as §1

soybean = experiment: Test B pre/postemergence soybean; assay type: in vivo, Glycine max
How it was run: as §1

[1] = Postemergence, Rate 62 g/ha, scale of 0 to 10, 0 is no effect, 10 is complete control
[2] = Postemergence, Rate 125 g/ha, scale 0 to 10, 0 is no effect, 10 is complete control
[3] = Postemergence, Rate 500 g/ha, scale 0 to 10, 0 is no effect, 10 is complete control
[4] = Preemergence, Rate 62 g/ha, scale of 0 to 10 where 0 is no effect and 10 is complete control
[5] = Preemergence, Rate 125 g/ha, scale 0 to 10, 0 is no effect, 10 is complete control
[6] = Preemergence, Rate 500 g/ha, scale of 0 to 10 where 0 is no effect and 10 is complete control
[7] = Postemergence, Rate 250 g/ha, scale 0 to 10
[8] = Preemergence, Rate 250 g/ha, scale 0 to 10, 0 is no effect, 10 is complete control
[9] = Preemergence, Rate 500 g/ha, scale 0 to 10, 0 is no effect, 10 is complete control

Structure (SMILES): CC(C)N(C(=O)n1oc(=O)n(CCCF)c1=O)c1ccc(F)cc1F [Compound 500]
- Morningglory plant response rating (morningglory; [1]): 3
- Morningglory plant response rating (morningglory; [2]): 3
- Plant response rating, Morningglory (morningglory; [3]): 3
- Plant response rating, Morningglory (morningglory; [4]): 0
- Morningglory plant response rating (morningglory; [5]): 5
- Morningglory plant response rating (morningglory; [6]): 9
- Cocklebur plant response rating (cocklebur; [1]): 3
- Cocklebur plant response rating (cocklebur; [2]): 3
- Cocklebur plant response rating (cocklebur; [7]): 3
- Plant response rating, Cocklebur (cocklebur; [3]): 5
- Plant response rating, Cocklebur (cocklebur; [4]): 0
- Cocklebur plant response rating (cocklebur; [5]): 0
- Cocklebur plant response rating (cocklebur; [8]): 2
- Cocklebur plant response rating (cocklebur; [6]): 2
- Sugarbeets plant response rating (sugar beet; [1]): 6
- Sugarbeets plant response rating (sugar beet; [2]): 6
- Plant response rating, Sugarbeets (sugar beet; [3]): 9
- Plant response rating, Sugarbeets (sugar beet; [4]): 9
- Sugarbeets plant response rating (sugar beet; [5]): 10
- Sugarbeets plant response rating (sugar beet; [6]): 10
- Bedstraw plant response rating (bedstraw; [2]): 9
- Bedstraw plant response rating (bedstraw; [7]): 9
- Plant response rating, Bedstraw (bedstraw; Preemergence): 8
- Bedstraw plant response rating (bedstraw; [5]): 9
- Bedstraw plant response rating (bedstraw; [8]): 9
- Bedstraw plant response rating (bedstraw; [9]): 10
- Wild oats plant response rating (wild oat; [1]): 0
- Wild oats plant response rating (wild oat; [2]): 0
- Plant response rating, Wild oats (wild oat; [3]): 7
- Plant response rating, Wild oats (wild oat; [4]): 7
- Wild oats plant response rating (wild oat; [5]): 9
- Wild oats plant response rating (wild oat; [6]): 10
- Giant foxtail plant response rating (giant foxtail; [1]): 7
- Giant foxtail plant response rating (giant foxtail; [2]): 8
- Plant response rating, Giant foxtail (giant foxtail; [3]): 9
- Plant response rating, Giant foxtail (giant foxtail; [4]): 9
- Giant foxtail plant response rating (giant foxtail; [5]): 10
- Giant foxtail plant response rating (giant foxtail; [6]): 10
- Crabgrass plant response rating (crabgrass; [1]): 6
- Crabgrass plant response rating (crabgrass; [2]): 9
- Crabgrass plant response rating (crabgrass; [7]): 8
- Plant response rating, Crabgrass (crabgrass; [3]): 9
- Plant response rating, Crabgrass (crabgrass; [4]): 7
- Crabgrass plant response rating (crabgrass; [5]): 9
- Crabgrass plant response rating (crabgrass; [6]): 10
- Wheat plant response rating (wheat; [1]): 0
- Plant response rating, Wheat (wheat; [3]): 5
- Plant response rating, Wheat (wheat; [4]): 2
- Wheat plant response rating (wheat; [5]): 6
- Wheat plant response rating (wheat; [6]): 8
- Nutsedge plant response rating (purple nutsedge; [1]): 0
- Plant response rating, Nutsedge (purple nutsedge; [3]): 2
- Plant response rating, Nutsedge (purple nutsedge; [4]): 0
- Nutsedge plant response rating (purple nutsedge; [5]): 8
- Nutsedge plant response rating (purple nutsedge; [6]): 10
- Blackgrass plant response rating (blackgrass; [1]): 3
- Blackgrass plant response rating (blackgrass; [2]): 4
- Blackgrass plant response rating (blackgrass; [7]): 6
- Plant response rating, Blackgrass (blackgrass; [3]): 6
- Plant response rating, Blackgrass (blackgrass; [4]): 9
- Blackgrass plant response rating (blackgrass; [5]): 9
- Blackgrass plant response rating (blackgrass; [8]): 10
- Blackgrass plant response rating (blackgrass; [6]): 10
- Rape plant response rating (rape; [1]): 3
- Rape plant response rating (rape; [2]): 3
- Plant response rating, Rape (rape; [3]): 8
- Plant response rating, Rape (rape; [4]): 9
- Rape plant response rating (rape; [5]): 10
- Rape plant response rating (rape; [6]): 10
- B. signalgrass plant response rating (surinam grass; [1]): 3
- B. signalgrass plant response rating (surinam grass; [2]): 5
- B. signalgrass plant response rating (surinam grass; Postemergence, Rate 250 g/ha, scale 0 to 10, 0 no effect, 10 complete control): 7
- Plant response rating, B. signalgrass (surinam grass; [3]): 8
- Plant response rating, B. signalgrass (surinam grass; [4]): 9
- B. signalgrass plant response rating (surinam grass; [5]): 9
- B. signalgrass plant response rating (surinam grass; [8]): 9
- B. signalgrass plant response rating (surinam grass; [9]): 10
- Redroot pigweed plant response rating (pigweed; [1]): 7
- Redroot pigweed plant response rating (pigweed; [2]): 9
- Plant response rating, Redroot pigweed (pigweed; [3]): 10
- Plant response rating, Redroot pigweed (pigweed; [4]): 10
- Redroot pigweed plant response rating (pigweed; [5]): 10
- Redroot pigweed plant response rating (pigweed; [6]): 10
- Velvetleaf plant response rating (velvetleaf; [1]): 4
- Velvetleaf plant response rating (velvetleaf; [2]): 4
- Plant response rating, Velvetleaf (velvetleaf; [3]): 5
- Plant response rating, Velvetleaf (velvetleaf; [4]): 5
- Velvetleaf plant response rating (velvetleaf; [5]): 8
- Velvetleaf plant response rating (velvetleaf; [6]): 10
- Corn plant response rating (corn; [1]): 2
- Corn plant response rating (corn; [2]): 2
- Corn plant response rating (corn; [7]): 2
- Plant response rating, Corn (corn; [3]): 6
- Plant response rating, Corn (corn; [4]): 0
- Corn plant response rating (corn; [5]): 5
- Corn plant response rating (corn; [6]): 8
- Soybean plant response rating (soybean; [1]): 3
- Soybean plant response rating (soybean; [2]): 4
- Plant response rating, Soybean (soybean; [3]): 4
- Plant response rating, Soybean (soybean; [4]): 0
- Soybean plant response rating (soybean; [5]): 3
- Soybean plant response rating (soybean; [6]): 8

Structure (SMILES): COCn1c(=O)on(C(=O)N(c2ccc(F)cc2F)C(C)C)c1=O [Compound 503]
- Plant response rating, Morningglory (morningglory; [4]): 2
- Morningglory plant response rating (morningglory; [5]): 2
- Morningglory plant response rating (morningglory; [6]): 7
- Plant response rating, Cocklebur (cocklebur; [4]): 0
- Cocklebur plant response rating (cocklebur; [5]): 0
- Cocklebur plant response rating (cocklebur; [8]): 0
- Cocklebur plant response rating (cocklebur; [6]): 3
- Plant response rating, Sugarbeets (sugar beet; [4]): 2
- Sugarbeets plant response rating (sugar beet; [5]): 6
- Sugarbeets plant response rating (sugar beet; [6]): 9
- Plant response rating, Bedstraw (bedstraw; Preemergence): 5
- Bedstraw plant response rating (bedstraw; [5]): 5
- Bedstraw plant response rating (bedstraw; [8]): 6
- Bedstraw plant response rating (bedstraw; [9]): 10
- Plant response rating, Wild oats (wild oat; [4]): 6
- Wild oats plant response rating (wild oat; [5]): 10
- Wild oats plant response rating (wild oat; [6]): 9
- Plant response rating, Giant foxtail (giant foxtail; [4]): 9
- Giant foxtail plant response rating (giant foxtail; [5]): 9
- Giant foxtail plant response rating (giant foxtail; [6]): 10
- Plant response rating, Crabgrass (crabgrass; [4]): 8
- Crabgrass plant response rating (crabgrass; [5]): 8
- Crabgrass plant response rating (crabgrass; [6]): 9
- Plant response rating, Wheat (wheat; [4]): 0
- Wheat plant response rating (wheat; [5]): 2
- Wheat plant response rating (wheat; [6]): 8
- Plant response rating, Nutsedge (purple nutsedge; [4]): 0
- Nutsedge plant response rating (purple nutsedge; [5]): 0
- Nutsedge plant response rating (purple nutsedge; [6]): 2
- Plant response rating, Blackgrass (blackgrass; [4]): 10
- Blackgrass plant response rating (blackgrass; [5]): 9
- Blackgrass plant response rating (blackgrass; [8]): 9
- Blackgrass plant response rating (blackgrass; [6]): 10
- Plant response rating, Rape (rape; [4]): 4
- Rape plant response rating (rape; [5]): 8
- Rape plant response rating (rape; [6]): 9
- Plant response rating, B. signalgrass (surinam grass; [4]): 6
- B. signalgrass plant response rating (surinam grass; [5]): 8
- B. signalgrass plant response rating (surinam grass; [8]): 8
- B. signalgrass plant response rating (surinam grass; [9]): 9
- Plant response rating, Redroot pigweed (pigweed; [4]): 8
- Redroot pigweed plant response rating (pigweed; [5]): 10
- Redroot pigweed plant response rating (pigweed; [6]): 10
- Plant response rating, Velvetleaf (velvetleaf; [4]): 6
- Velvetleaf plant response rating (velvetleaf; [5]): 6
- Velvetleaf plant response rating (velvetleaf; [6]): 8
- Plant response rating, Corn (corn; [4]): 3
- Corn plant response rating (corn; [5]): 5
- Corn plant response rating (corn; [6]): 9
- Plant response rating, Soybean (soybean; [4]): 2
- Soybean plant response rating (soybean; [5]): 3
- Soybean plant response rating (soybean; [6]): 7
